Our source for the IC50 values is patent publication US20240300980A1, “HETEROCYCLIC COMPOUNDS AS KRAS INHIBITOR, AND PREPARATION THEREFOR AND USE THEREOF IN TREATMENT” (SHANGHAI KECHOW PHARMA, INC., priority 2021, published 2024).

Molecules are shown by their SMILES.

This assay has as its system AGS cells (KRAS^G12D). The assay can be described thus: Detection of cell proliferation in vitro by MTT/MTS method (cell activity experiment). It is filed as cell-based. Conditions: Homo sapiens, AGS, 72 h, AGS cells; MTT/MTS; 3 days of drug treatment; read-out: AGS IC50. Summed up:
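After 3-day compound exposure (final DMSO 0.5%), viability of AGS (KRAS G12D) cells, plated 1000/well one day before dosing, was measured at 490 nm following 4 h MTT or MTS incubation. IC50 was fitted from dose–effect curves relative to DMSO-treated wells.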
With `C#Cc1c(F)ccc2cc(O)cc(-c3ncc4c(N5CC6CC(C5)N6)nc(OC[C@@]56CCCN5C[C@H](F)C6)nc4c3F)c12` [Example 45, 4-(4-(3,6-diazabicyclo [3.1.1]heptan-3-yl)-8-fluoro-2-(((2R,7aS)-2-fluorotetrahydro-1H-pyrrolizin-7a(5H)-yl)methoxy)pyrido[4,3-d]pyrimidin-7-yl)-5-ethynyl-6-fluoronaphthalen-2-ol], the IC50 came to 0.039 µM.
The same measure for `C#Cc1c(F)ccc2cc(O)cc(-c3ncc4c(N5CC6CCC5CN6)nc(OC[C@@]56CCCN5C[C@H](F)C6)nc4c3F)c12` (stereo partly drawn) [Example 46, 4-(4-(2,5-diazabicyclo [2.2.2]octan-2-yl)-8-fluoro-2-(((2R,7aS)-2-fluorotetrahydro-1H-pyrrolizin-7a(5H)-yl)methoxy)pyrido[4,3-d]pyrimidin-7-yl)-5-ethynyl-6-fluoronaphthalen-2-ol]: 0.013 µM; for `C#Cc1c(F)ccc2cc(O)cc(-c3ncc4c(N5CCC6(CCCN6)CC5)nc(OC[C@@]56CCCN5C[C@H](F)C6)nc4c3F)c12` [Example 47, 5-ethynyl-6-fluoro-4-(8-fluoro-2-(((2R,7aS)-2-fluorotetrahydro-1H-pyrrolizin-7a(5H)-yl)methoxy)-4-(1,8-diazaspiro[4.5]decan-8-yl)pyrido[4,3-d]pyrimidin-7-yl) naphthalen-2-ol]: 4.54 µM.
Regarding `C#Cc1cccc2cc(O)cc(-c3ncc4c(N5CCC6(CCCN6)CC5)nc(OC[C@@]56CCCN5C[C@H](F)C6)nc4c3F)c12` [Example 48, 5-ethynyl-4-(8-fluoro-2-(((2R,7aS)-2-fluorotetrahydro-1H-pyrrolizin-7a(5H)-yl)methoxy)-4-(1,8-diazaspiro[4.5]decan-8-yl)pyrido[4,3-d]pyrimidin-7-yl) naphthalen-2-ol], the IC50 was 5.16 µM.
Consider `C#Cc1c(F)ccc2cc(O)cc(-c3ncc4c(N5CCC6(CCCS6)CC5)nc(OC[C@@]56CCCN5C[C@H](F)C6)nc4c3F)c12` [Example 49, 5-ethynyl-6-fluoro-4-(8-fluoro-2-(((2R, 7aS)-2-fluorotetrahydro-1H-pyrrolizin-7a(5H)-yl)methoxy)-4-(1-thia-8-azaspiro[4.5]decan-8-yl)pyrido[4,3-d]pyrimidin-7-yl)naphthalen-2-ol], for which the IC50 is more than 10 µM.
Under `C#Cc1c(F)ccc2cc(O)cc(-c3ncc4c(N5CCC6(CCCS6(=O)=O)CC5)nc(OC[C@@]56CCCN5C[C@H](F)C6)nc4c3F)c12` [Example 50, 8-(7-(8-ethynyl-7-fluoro-3-hydroxynaphthalen-1-yl)-8-fluoro-2-(((2R, 7aS)-2-fluorotetrahydro-1H-pyrrolizin-7a(5H)-yl)methoxy)pyrido[4,3-d]pyrimidin-4-yl)-1-thia-8-azaspiro[4.5] decane 1,1-dioxide] stands more than 10 µM; under `C#Cc1c(F)ccc2cc(O)cc(-c3ncc4c(N5CCC(N)C5)nc(OC[C@@]56CCCN5C[C@H](F)C6)nc4c3F)c12` (stereo partly drawn) [Example 51, 4-(4-(3-aminopyrrolidin-1-yl)-8-fluoro-2-(((2R, 7aS)-2-fluorotetrahydro-1H-pyrrolizin-7a(5H)-yl)methoxy)pyrido[4,3-d]pyrimidin-7-yl)-5-ethynyl-6-fluoronaphthalen-2-ol], 1.66 µM.
The same measure for `C#Cc1c(F)ccc2cc(O)cc(-c3ncc4c(N5CC6CCCNC6C5)nc(OC[C@@]56CCCN5C[C@H](F)C6)nc4c3F)c12` (stereo partly drawn) [Example 52, 5-ethynyl-6-fluoro-4-(8-fluoro-2-(((2R,7aS)-2-fluorotetrahydro-1H-pyrrolizin-7a(5H)-yl)methoxy)-4-(octahydro-6H-pyrrolo[3,4-b]pyridin-6-yl)pyrido[4,3-d]pyrimidin-7-yl)naphthalen-2-ol]: more than 2.5 µM.
The same measure for `C#Cc1cccc2cc(O)cc(-c3ncc4c(N5CC6CCCNC6C5)nc(OC[C@@]56CCCN5C[C@H](F)C6)nc4c3F)c12` (stereo partly drawn) [Example 53, 5-ethynyl-4-(8-fluoro-2-(((2R,7aS)-2-fluorotetrahydro-1H-pyrrolizin-7a(5H)-yl)methoxy)-4-(octahydro-6H-pyrrolo[3,4-b]pyridin-6-yl)pyrido[4,3-d]pyrimidin-7-yl)naphthalen-2-ol]: more than 2.5 µM; for `C#Cc1c(F)ccc2cc(O)cc(-c3ncc4c(N5CC6CCNC6C5)nc(OC[C@@]56CCCN5C[C@H](F)C6)nc4c3F)c12` (stereo partly drawn) [Example 54, 5-ethynyl-6-fluoro-4-(8-fluoro-2-(((2R,7aS)-2-fluorotetrahydro-1H-pyrrolizin-7a(5H)-yl)methoxy)-4-(hexahydropyrrolo[3,4-b]pyrrol-5(1H)-yl)pyrido [4,3-d]pyrimidin-7-yl) naphthalen-2-ol]: more than 2.5 µM; for `C#Cc1c(F)ccc2cc(O)cc(-c3ncc4c(N5CCC6(CC5)CO[C@@H](C)[C@H]6N)nc(OC[C@@]56CCCN5C[C@H](F)C6)nc4c3F)c12` [Example 55, 4-(4-((3S,4S)-4-amino-3-methyl-2-oxa-8-azaspiro[4.5]decan-8-yl)-8-fluoro-2-(((2R, 7aS)-2-fluorotetrahydro-1H-pyrrolizin-7a(5H)-yl)methoxy)pyrido[4,3-d]pyrimidin-7-yl)-5-ethynyl-6-fluoronaphthalen-2-ol]: more than 2.5 µM.
For the compound `C#Cc1cccc2cc(O)cc(-c3ncc4c(N5CCC6(CC5)CO[C@@H](C)[C@H]6N)nc(OC[C@@]56CCCN5C[C@H](F)C6)nc4c3F)c12` [Example 56, 4-(4-((3S,4S)-4-amino-3-methyl-2-oxa-8-azaspiro[4.5]decan-8-yl)-8-fluoro-2-(((2R, 7aS)-2-fluorotetrahydro-1H-pyrrolizin-7a(5H)-yl)methoxy)pyrido[4,3-d]pyrimidin-7-yl)-5-ethynylnaphthalen-2-ol], the IC50 was more than 2.5 µM.
Under `C[C@@H]1OCC2(CCN(c3nc(OC[C@@]45CCCN4C[C@H](F)C5)nc4c(F)c(-c5cc(O)cc6ccc(F)c(F)c56)ncc34)CC2)[C@@H]1N` [Example 57, 4-(4-((3S,4S)-4-amino-3-methyl-2-oxa-8-azaspiro[4.5]decan-8-yl)-8-fluoro-2-(((2R, 7aS)-2-fluorotetrahydro-1H-pyrrolizin-7a(5H)-yl)methoxy)pyrido[4,3-d]pyrimidin-7-yl)-5,6-difluoronaphthalen-2-ol] stands more than 2.5 µM; under `C#Cc1c(F)ccc2cc(O)cc(-c3ncc4c(N5CCC(NC)C5)nc(OC[C@@]56CCCN5C[C@H](F)C6)nc4c3F)c12` (stereo partly drawn) [Example 58, 5-ethynyl-6-fluoro-4-(8-fluoro-2-(((2R,7aS)-2-fluorotetrahydro-1H-pyrrolizin-7a(5H)-yl)methoxy)-4-(3-(methylamino)pyrrolidin-1-yl)pyrido[4,3-d]pyrimidin-7-yl)naphthalen-2-ol], more than 2.5 µM; under `C#Cc1c(F)ccc2cc(O)cc(-c3ncc4c(N5CCC(NS(C)(=O)=O)C5)nc(OC[C@@]56CCCN5C[C@H](F)C6)nc4c3F)c12` (stereo partly drawn) [Example 59, N-(1-(7-(8-ethynyl-7-fluoro-3-hydroxynaphthalen-1-yl)-8-fluoro-2-(((2R, 7aS)-2-fluorotetrahydro-1H-pyrrolizin-7a(5H)-yl)methoxy)pyrido[4,3-d]pyrimidin-4-yl)pyrrolidin-3-yl) methanesulfonamide], more than 2.5 µM.
Under `C#Cc1c(F)ccc2cc(O)cc(-c3ncc4c(N5CC6CCC(C5)C6O)nc(OC[C@@]56CCCN5C[C@H](F)C6)nc4c3F)c12` (stereo partly drawn) [Example 60, (1R,5S,8R)-3-(7-(8-ethynyl-7-fluoro-3-hydroxynaphthalen-1-yl)-8-fluoro-2-(((2R,7aS)-2-fluorotetrahydro-1H-pyrrolizin-7a(5H)-yl)methoxy)pyrido[4,3-d]pyrimidin-4-yl)-3-azabicyclo[3.2.1]octan-8-ol] stands more than 2.5 µM.

For orientation: IC50 means the concentration that gives 50% inhibition.
